The source of these data is patent US12440484B2, “1,3,4-oxadiazole homophthalimide derivative compounds as histone deacetylase 6 inhibitor, and the pharmaceutical composition comprising the same” (Chong Kun Dang Pharmaceutical Corp., priority 2019, dated 2025).

The structures appear in SMILES notation. Where only a bound is given, the exact number is not on record here.

One assay concerns the target HDAC1 (Homo sapiens (Human), UniProt Q13547). The assay can be described thus: HDAC enzyme activity inhibition (in vitro), HDAC1 Fluorimetric Drug Discovery Assay Kit. In kind it is biochemical. The note with it: samples at 100, 1000 and 10000 nM; 37° C. 60 minutes; fluorescence Ex 390, Em 460.
Another assay has as its target HDAC6 human recombinant (Homo sapiens (Human), UniProt Q9UBN7). Kind of assay: HDAC enzyme activity inhibition (in vitro), HDAC6 assay. In kind it is biochemical. The following applies: samples at 0.1, 1, 10, 100 and 1000 nM; 37° C. 60 minutes; fluorescence Ex 390, Em 460.

Chain of HDAC1 (Q13547 whole entry): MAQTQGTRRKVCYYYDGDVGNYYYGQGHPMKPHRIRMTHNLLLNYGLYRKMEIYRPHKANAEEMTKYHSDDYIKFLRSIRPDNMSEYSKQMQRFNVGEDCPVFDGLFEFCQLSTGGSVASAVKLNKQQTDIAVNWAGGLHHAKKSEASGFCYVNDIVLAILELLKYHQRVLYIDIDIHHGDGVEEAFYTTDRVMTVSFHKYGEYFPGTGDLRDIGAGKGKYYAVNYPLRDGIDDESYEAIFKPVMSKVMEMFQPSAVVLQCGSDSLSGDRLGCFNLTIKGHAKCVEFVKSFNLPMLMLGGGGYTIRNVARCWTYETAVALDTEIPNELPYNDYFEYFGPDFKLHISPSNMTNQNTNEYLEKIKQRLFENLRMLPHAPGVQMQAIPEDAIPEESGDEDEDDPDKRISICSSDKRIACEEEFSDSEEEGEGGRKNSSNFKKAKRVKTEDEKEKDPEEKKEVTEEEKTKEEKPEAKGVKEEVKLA
Chain of HDAC6 human recombinant (Q9UBN7 whole entry): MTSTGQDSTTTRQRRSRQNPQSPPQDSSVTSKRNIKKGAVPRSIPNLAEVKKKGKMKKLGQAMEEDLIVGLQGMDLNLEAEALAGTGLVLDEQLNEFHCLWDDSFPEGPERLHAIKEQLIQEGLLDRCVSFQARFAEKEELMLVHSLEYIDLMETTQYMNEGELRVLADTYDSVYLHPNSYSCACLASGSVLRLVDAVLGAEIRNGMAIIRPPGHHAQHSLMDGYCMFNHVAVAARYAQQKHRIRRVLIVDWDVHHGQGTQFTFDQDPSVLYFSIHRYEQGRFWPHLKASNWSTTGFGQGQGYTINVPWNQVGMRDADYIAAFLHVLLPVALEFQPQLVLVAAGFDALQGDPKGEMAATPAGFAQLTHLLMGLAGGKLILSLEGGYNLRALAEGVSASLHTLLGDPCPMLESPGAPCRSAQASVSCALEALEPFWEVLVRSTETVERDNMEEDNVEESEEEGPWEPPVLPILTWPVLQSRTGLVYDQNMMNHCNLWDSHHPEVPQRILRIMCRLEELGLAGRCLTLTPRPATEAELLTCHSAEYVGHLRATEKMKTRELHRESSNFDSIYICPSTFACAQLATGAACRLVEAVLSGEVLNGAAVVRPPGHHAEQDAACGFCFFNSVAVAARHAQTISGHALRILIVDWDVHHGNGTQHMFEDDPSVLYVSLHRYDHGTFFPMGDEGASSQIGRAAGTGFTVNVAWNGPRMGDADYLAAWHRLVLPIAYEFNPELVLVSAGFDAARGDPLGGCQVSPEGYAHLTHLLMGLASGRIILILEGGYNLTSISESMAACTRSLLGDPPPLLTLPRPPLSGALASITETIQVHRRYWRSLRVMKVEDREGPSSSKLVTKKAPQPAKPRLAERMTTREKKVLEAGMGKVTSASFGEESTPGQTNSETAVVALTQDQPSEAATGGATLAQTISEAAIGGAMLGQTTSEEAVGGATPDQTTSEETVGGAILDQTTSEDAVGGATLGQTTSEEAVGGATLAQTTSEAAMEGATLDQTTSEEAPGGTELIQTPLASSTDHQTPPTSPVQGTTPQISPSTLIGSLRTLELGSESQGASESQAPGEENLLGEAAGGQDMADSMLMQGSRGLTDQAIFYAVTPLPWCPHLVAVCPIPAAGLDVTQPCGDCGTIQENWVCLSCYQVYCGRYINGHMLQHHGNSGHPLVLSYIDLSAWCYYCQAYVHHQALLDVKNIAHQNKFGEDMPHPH

In the case of `CC(=O)N1CCN(c2ccc3c(c2)C(C)(C)C(=O)N(Cc2ccc(-c4nnc(C(F)F)o4)cn2)C3=O)CC1` [Compound 34, 6-(4-acetylpiperazine-1-yl)-2-((5-(5-(difluoromethyl)-1,3,4-oxadiazole-2-yl)pyridine-2-yl)methyl)-4,4-dimethylisoquinoline-1,3(2H,4H)-dione], the IC50 (as a rule, the concentration needed to halve the response being measured) is > 10000 nM against HDAC1 and 27 nM at HDAC6 human recombinant.
For `Cn1c(=O)n(Cc2ccc(-c3nnc(C(F)F)o3)cn2)c(=O)c2ccc(-c3ccncc3)cc21` [Compound 101, 3-((5-(5-(difluoromethyl)-1,3,4-oxadiazole-2-yl)pyridine-2-yl)methyl)-1-methyl-7-(pyridine-4-yl)quinazoline-2,4(1H,3H)-dione] the same measures were > 10000 nM and 33 nM.
For the compound `CC1(C)C(=O)N(Cc2ccc(-c3nnc(C(F)F)o3)cn2)C(=O)c2ccc(-c3cccnc3)cc21` [Compound 104, 2-((5-(5-(difluoromethyl)-1,3,4-oxadiazole-2-yl)pyridine-2-yl)methyl)-4,4-dimethyl-6-(pyridine-3-yl)isoquinoline-1,3(2H,4H)-dione], the IC50 at HDAC1 is > 10000 nM; at HDAC6 human recombinant, 20 nM.
On to `CC1(C)C(=O)N(Cc2ccc(-c3nnc(C(F)F)o3)cn2)C(=O)c2ccc(N3CCN(C(C)(C)C)CC3)cc21` [Compound 36, 6-(4-(tert-butyl)piperazine-1-yl)-2-((5-(5-(difluoromethyl)-1,3,4-oxadiazole-2-yl)pyridine-2-yl)methyl)-4,4-dimethylisoquinoline-1,3(2H,4H)-dione], for which the results for the IC50 against HDAC1 and on HDAC6 human recombinant were > 10000 nM and 24 nM, respectively.
For `Cn1c(=O)n(Cc2ccc(-c3nnc(C(F)F)o3)cn2)c(=O)c2cc(-c3ccoc3)ccc21` [Compound 88, 3-((5-(5-(difluoromethyl)-1,3,4-oxadiazole-2-yl)pyridine-2-yl)methyl)-6-(furan-3-yl)-1-methylquinazoline-2,4(1H,3H)-dione] the same measures were > 10000 nM and 21 nM.
For `Cc1ccc(-c2cccc3c2C(=O)N(Cc2ccc(-c4nnc(C(F)F)o4)cn2)C(=O)C3(C)C)o1` [Compound 93, 2-((5-(5-(difluoromethyl)-1,3,4-oxadiazole-2-yl)pyridine-2-yl)methyl)-4,4-dimethyl-8-(5-methylfuran-2-yl)isoquinoline-1,3(2H,4H)-dione] the same measures were > 10000 nM and 143 nM.
For `CCN1CC=C(c2ccc3c(c2)C(C)(C)C(=O)N(Cc2ncc(-c4nnc(C(F)F)o4)cn2)C3=O)CC1` [Compound 155, 2-((5-(5-(difluoromethyl)-1,3,4-oxadiazole-2-yl)pyrimidine-2-yl)methyl)-6-(1-ethyl-1,2,3,6-tetrahydropyridine-4-yl)-4,4-dimethylisoquinoline-1,3(2H,4H)-dione] the same measures were > 10000 nM and 185 nM.
As for `O=C1c2ccccc2C2(CCC2)C(=O)N1Cc1ccc(-c2nnc(C(F)F)o2)cn1` [Compound 4, 2′-((5-(5-(difluoromethyl)-1,3,4-oxadiazole-2-yl)pyridine-2-yl)methyl)-1′H-spiro[cyclobutane-1,4′-isoquinoline]-1′,3′(2′H)-dione], the figures for the IC50 against HDAC1 and at HDAC6 human recombinant were > 10000 nM and 32 nM, respectively.
Turning to `CCC(F)(F)CN1CCN(c2ccc3c(c2)C(C)(C)C(=O)N(Cc2ccc(-c4nnc(C(F)F)o4)cn2)C3=O)CC1` [Compound 139, 6-(4-(2,2-difluorobutyl)piperazine-1-yl)-2-((5-(5-(difluoromethyl)-1,3,4-oxadiazole-2-yl)pyridine-2-yl)methyl)-4,4-dimethylisoquinoline-1,3(2H,4H)-dione], the figures for the IC50 at HDAC1 and on HDAC6 human recombinant were > 10000 nM and 683 nM, respectively.
The corresponding values for `CC1(C)C(=O)N(Cc2ccc(-c3nnc(C(F)F)o3)cn2)C(=O)c2ccc(N3CCN(CC(F)(F)C(F)F)CC3)cc21` [Compound 137, 2-((5-(5-(difluoromethyl)-1,3,4-oxadiazole-2-yl)pyridine-2-yl)methyl)-4,4-dimethyl-6-(4-(2,2,3,3-tetrafluoropropyl)piperazine-1-yl)isoquinoline-1,3(2H,4H)-dione] are > 10000 nM and 89 nM.
